Measured values reported in patent publication US20180118682A1, “PHARMACEUTICAL COMPOSITION CONTAINING A TRYPTOPHAN DERIVATIVE” (Ramot at Tel-Aviv University Ltd., priority 2010, published 2018).
Values after ≈ are worked out from the molar mass of the structure shown.

How the values were obtained:
[1] = test system: microorganisms (e.g. bacteria and fungi); test: microbial preservation of ophthalmic formulations according to European and US pharmacopeia standards; type: cell-based; settings: European standards (Pharmacopeia 7.0) and US-Pharmacopeia
From the text: It can be particularly difficult to preserve formulations against microorganisms (e.g. bacteria and fungi), if the formulation contains a cyclodextrin derivative.
From different tests it can be seen that a sufficient microbial preservation of ophthalmic formulations is not possible with benzalkonium chloride, cetrimide and chlorhexidine according to the European standards (Pharmacopeia 7.0) and US standards (US-Pharmacopeia).

[2] = test system: Candida albicans; test: preservation of ophthalmic formulation against Candida albicans; type: cell-based
From the text: (§1) For testing of the long term preservation of the ophthalmic formulations with metal-containing preservatives, the pharmaceutical compositions VI of example 4 was modified by adding thiomersal in a concentration of 0.01% by weight in the aqueous formulation.

[3] = equilibrium solubility in water at 20 °C with varying cyclodextrin content; type: physicochemical; settings: thermodynamic from solid
Method: For testing the influence of the cyclodextrin content in ophthalmic formulations, the solubility of Compound (A) was tested.

[4] = test system: retinal ganglion cell (RGC) apoptosis; test: rat glaucoma model (chronic ophthalmic hypertension), RGC apoptosis; type: in vivo, male Dark Aguti rat; settings: low doses, intravitreal; compared to vehicle; 3 and 6 weeks after OHT induction
Method: In a male Dark Aguti rat model, glaucoma is produced by injection of hypertonic saline into episcleral veins of one eye to induce increased ophthalmic pressure (chronic ophthalmic hypertension), while the opposite eye serves as a control. In treatment groups, various doses of compound (A) of the instant invention are injected intravitreally (in […] volume) at the time of glaucoma induction and in some groups the administration continues for following 7 days to see whether such extended treatment results in increased efficacy.
The extent of retinal ganglion cell (RGC) apoptosis at 3 weeks and 6 weeks after chronic ophthalmic hypertension (OHT) induction is assessed in each animal by dynamic confocal scanning laser ophthalmoscopy and fluorescent-labeled Annexin V.
Animals are sacrificed after 3 and 6 weeks and their eyes are enucleated and fixed in 4% para-formaldehyde overnight. Afterwards, retinas are separated for assessing apoptosis related changes, for example visualized with FITC Annexin V kit (BD Biosciences, Franklin Laker (USA).

[5] = compatibility with ophthalmic excipients; type: physicochemical; settings: aqueous solutions at pH 5.5
From the text: In the further series of tests, the compatibility of the compound (A) with other typical ophthalmic excipients was investigated.

[6] = equilibrium solubility in citrate buffer saline pH6 with cyclodextrins (shake flask method); type: physicochemical; settings: citrate buffer saline with cyclodextrin, pH 6, aqueous with cosolvent or surfactant or cyclodextrin, thermodynamic from solid, read-out: Solubility of compound (A)
Method: The equilibrium solubility of compound (A) was tested in a citrate buffer saline at pH6 in presence of different cyclodextrins by the shake flask method.

[7] = octanol/water partition coefficient log P, pH-metric method (OECD draft guideline 122); type: physicochemical; settings: titrated pH 1.9 to 10.9, 1.3 to 1.9 mM, various octanol/water ratios
From the text: The octanol/water partition coefficient log P of the compounds of the invention can be determined by accepted standard methods known to the person skilled in the art, such as OECD (1995), Test No. 107: Partition Coefficient (n-octanol/water): Shake Flask Method, OECD Guidelines for the Testing of Chemicals, Section 1: Physical-Chemical properties, OECD Publishing. doi: 10.1787/9789264069626-en.
The log P value may be determined according to the draft OECD guideline OECD (2000), OECD Draft guideline for the Testing of Chemicals: 122 Partition Coefficient (n-Octanol/Water): pH-Metric Method for Ionisable Substances. For Example, log P of compound (A) was investigated using OECD (2000) OECD Draft guideline for the Testing of Chemicals: 122. The sample was titrated in two triple titrations from pH 1.9 to pH 10.9 at concentrations of 1.3 to 1.9 mM in various ratios of octanol/water.

[8] = aqueous solubility of compound (A) as a function of pH (UV-spectroscopy); type: physicochemical; settings: for solubility: aqueous media, aqueous buffer, R-enantiomer used
Method: At acidic conditions, the solubility of the compound (A) is higher.
At alkaline pH-values, the solubility of the compound (A) is also better.
The solubility of the R-enantiomer of compound (A) was determined as a function of the pH-value by using UV-spectroscopy to quantify the concentration of the compound in a series of aqueous media.

[9] = test system: Staphylococcus aureus; test: preservation of ophthalmic formulation against Staphylococcus aureus; type: cell-based
From the text: as §1

[10] = test system: Aspergillus niger; test: preservation of ophthalmic formulation against Aspergillus niger; type: cell-based
From the text: as §1

[11] = test system: Pseudomonas aeruginosa; test: preservation of ophthalmic formulation against Pseudomonas aeruginosa; type: cell-based
From the text: as §1

[12] = 0.001 to 0.01% by weight in the aqueous formulation
[13] = composition VI with thiomersal 0.01% by weight, after 28 days

In the case of benzalkonium chloride, the “sufficient microbial preservation of ophthalmic formulations” value (shortened to “sufficient microbial preservation”) [1] is reported as “not possible”.
In the case of `C/C=C/C=C/C(=O)O` [sorbic acid], the “preservation against Candida albicans” value ([2]; 0.3% by weight instead of thiomersal in composition VI, after 14 days) is reported as “insufficient preservation”.
In the case of cetrimide, the “sufficient microbial preservation” value [1] is reported as “not possible”.
Work on `CC(C)(NC(=O)C(N)Cc1c[nH]c2ccccc12)C(=O)O` (stereo not drawn) [compound (A), 2-[2-Amino-3-(1H-indol-3-yl)-propionylamino]-2-methyl-propionic acid] yielded a solubility thermodynamic ([3]; water without cyclodextrin) of 11.6 mg/mL (≈ 40.1 mM), a solubility thermodynamic ([3]; water with cyclodextrin (HPBCD), aqueous with cosolvent or surfactant or cyclodextrin, water containing 65 mg/ml cyclodextrin (HPBCD)) of 20.2 mg/mL and a solubility thermodynamic ([3]; water with cyclodextrin, aqueous with cosolvent or surfactant or cyclodextrin, water containing 165 mg/ml cyclodextrin) of 41.2 mg/mL. The RGC apoptosis [4] was “strong decrease”, the “compatibility with further components (F) (hypromellose, carbomer, Gellan gum, preservatives)” value [5] was “no incompatibilities” and the solubility ([6]; 100 mg/ml ACD (α-Cyclodextrin, Fluka)) was 12.7 mg/mL (≈ 43.9 mM). The solubility ([6]; 110 mg/ml HPBCD (Kleptose HPB, Roquette)) was 27.9 mg/mL (≈ 96.4 mM), the solubility ([6]; 110 mg/ml HPGCD (Cavasol W8 HP Pharma, ISP)) was 16.2 mg/mL (≈ 56 mM) and the solubility ([6]; 110 mg/ml MBCD (Kleptose Crysmeb, Roquette)) was 28.7 mg/mL (≈ 99.2 mM). The logP [7] was less than -1, the solubility ([8]; pH 4.6) was roughly 14 mg/mL (≈ 48.4 mM) and the solubility ([8]; pH 6) was roughly 10 mg/mL (≈ 34.6 mM). For the same molecule, the solubility ([8]; pH 7) was roughly 10 mg/mL (≈ 34.6 mM), the solubility ([8]; pH 7.2) was roughly 14 mg/mL (≈ 48.4 mM) and the “solubility (in words)” value ([8]; at acidic conditions) was “higher”. For the same molecule, the “solubility (in words)” value ([8]; at alkaline pH-values) was “better” and the “solubility (in words)” value ([8]; from pH 4.5 to 7) was “particularly low”.
In the case of `C[CH2][Hg][S]c1ccccc1C(=O)[O-].[Na+]` [thiomersal], the “activity meeting the compendia requirements” value [2] is reported as “sufficient activity”, the duration of preservation [2, 12] is reported as no less than 28 days and the reduction of organism [2, 13] is reported as no less than 5 log. For the same molecule, the “activity meeting the compendia requirements” value [9] was “sufficient activity”, the duration of preservation [9, 12] was no less than 28 days and the reduction of organism [9, 13] was no less than 5 log. The “activity meeting the compendia requirements” value [10] was “sufficient activity”, the duration of preservation [10, 12] was no less than 28 days and the reduction of organism [10, 13] was no less than 5 log. For the same molecule, the “activity meeting the compendia requirements” value [11] was “sufficient activity”, the duration of preservation [11, 12] was no less than 28 days and the reduction of organism [11, 13] was no less than 5 log.
With `[H]/N=C(\N/C(=N/[H])NCCCCCCNC(=N)NC(=N)Nc1ccc(Cl)cc1)Nc1ccc(Cl)cc1` [chlorhexidine] the “sufficient microbial preservation” value [1] was “not possible”.
